# Assay: Drug tolerability (body weight) in TC-71 Ewing sarcoma xenograft model
# Assay type: in vivo, Athymic nude mice
# Settings: for BWL %: negative = loss vs day 9
# Protocol: Experiments were performed with female Athymic nude mice, 9-10 weeks old obtained from Harlan Laboratories (Udine, Italy). They were maintained under Specific Pathogen Free conditions with constant temperature and humidity, according to the institutional guidelines.
# Tumour growth mice was monitored two/three times a week (depending on tumour growth rate, to avoid unnecessary stress to the animals) by Vernier caliper. Mice were sacrificed when tumour reached a mean weight of 2±0.5 gr. The antitumour activity will be expressed as T/C %, where T and C were the mean tumour weight of treated and control groups, respectively. Mice were monitored daily and weighted at least two times a week. Tolerability was evaluated on the basis of body weight loss (BWL) and clinical observation.
# [1] = EDO40: EDO-S101 40 mg/kg, day 9 from tumour inoculum (treatment start)
# [2] = EDO40: EDO-S101 40 mg/kg, day 10 from tumour inoculum
# [3] = EDO40: EDO-S101 40 mg/kg, day 11 from tumour inoculum
# [4] = EDO40: EDO-S101 40 mg/kg, day 14 from tumour inoculum
# [5] = EDO40: EDO-S101 40 mg/kg, day 16 from tumour inoculum
# [6] = EDO40: EDO-S101 40 mg/kg, day 18 from tumour inoculum
# [7] = EDO40: EDO-S101 40 mg/kg, day 21 from tumour inoculum
# [8] = EDO40: EDO-S101 40 mg/kg, day 23 from tumour inoculum
# [9] = EDO40: EDO-S101 40 mg/kg, day 25 from tumour inoculum
# [10] = EDO40: EDO-S101 40 mg/kg, day 28 from tumour inoculum
# [11] = EDO40: EDO-S101 40 mg/kg, day 30 from tumour inoculum
# [12] = EDO40: EDO-S101 40 mg/kg, day 32 from tumour inoculum
# [13] = EDO60: EDO-S101 60 mg/kg, day 9 from tumour inoculum (treatment start)
# [14] = EDO60: EDO-S101 60 mg/kg, day 10 from tumour inoculum
# [15] = EDO60: EDO-S101 60 mg/kg, day 11 from tumour inoculum
# [16] = EDO60: EDO-S101 60 mg/kg, day 14 from tumour inoculum
# [17] = EDO60: EDO-S101 60 mg/kg, day 16 from tumour inoculum
# [18] = EDO60: EDO-S101 60 mg/kg, day 18 from tumour inoculum
# [19] = EDO60: EDO-S101 60 mg/kg, day 21 from tumour inoculum
# [20] = EDO60: EDO-S101 60 mg/kg, day 23 from tumour inoculum
# [21] = EDO60: EDO-S101 60 mg/kg, day 25 from tumour inoculum
# [22] = EDO60: EDO-S101 60 mg/kg, day 28 from tumour inoculum
# [23] = EDO60: EDO-S101 60 mg/kg, day 30 from tumour inoculum
# [24] = EDO60: EDO-S101 60 mg/kg, day 32 from tumour inoculum
# [25] = EDO60: EDO-S101 60 mg/kg, day 35 from tumour inoculum
# [26] = EDO60: EDO-S101 60 mg/kg, day 38 from tumour inoculum
# [27] = EDO60: EDO-S101 60 mg/kg, day 42 from tumour inoculum
structure (smiles),measurement,setting,value
"Cn1c(CCCCCCC(=O)NO)nc2cc(N(CCCl)CCCl)ccc21 [EDO-S101, 7-(5-(bis(2-chloroethyl)amino)-1-methyl-1H-benzo[d]imidazol-2-yl)-N-hydroxyheptanamide]",mice found dead,"40 mg/kg group, unknown reasons, probably not ascribable to the drug",One
same,maximum BWL,"40 mg/kg, day 10, 24 h after the first dose",5.4%
same,maximum BWL,"60 mg/kg, day 25, 48 h after the third dose",11.7%
same,maximum body weight loss,"80 mg/kg, day 14, 5 days after administration",19.3%
same,time to recovery from body weight loss,"80 mg/kg, recovered by day 24",≤ 10 days
same,"Mouse body weight, group Mean",[1],27.0 g
same,BWL %,[1],0.0%
same,"Mouse body weight, group Mean",[2],25.6 g
same,BWL %,[2],−5.4%
same,"Mouse body weight, group Mean",[3],25.9 g
same,BWL %,[3],−4.0%
same,"Mouse body weight, group Mean",[4],26.6 g
same,BWL %,[4],−1.6%
same,"Mouse body weight, group Mean",[5],27.2 g
same,BWL %,[5],0.7%
same,"Mouse body weight, group Mean",[6],26.1 g
same,BWL %,[6],−3.4%
same,"Mouse body weight, group Mean",[7],26.2 g
same,BWL %,[7],−3.0%
same,"Mouse body weight, group Mean",[8],27.1 g
same,BWL %,[8],0.3%
same,"Mouse body weight, group Mean",[9],26.3 g
same,BWL %,[9],−2.9%
same,"Mouse body weight, group Mean",[10],27.7 g
same,BWL %,[10],2.3%
same,"Mouse body weight, group Mean",[11],28.5 g
same,BWL %,[11],5.3%
same,"Mouse body weight, group Mean",[12],28.7 g
same,BWL %,[12],6.0%
same,"Mouse body weight, group Mean",[13],27.6 g
same,BWL %,[13],0.0%
same,"Mouse body weight, group Mean",[14],25.6 g
same,BWL %,[14],−7.0%
same,"Mouse body weight, group Mean",[15],25.2 g
same,BWL %,[15],−8.6%
same,"Mouse body weight, group Mean",[16],25.4 g
same,BWL %,[16],−8.1%
same,"Mouse body weight, group Mean",[17],26.2 g
same,BWL %,[17],−5.1%
same,"Mouse body weight, group Mean",[18],25.2 g
same,BWL %,[18],−8.8%
same,"Mouse body weight, group Mean",[19],24.9 g
same,BWL %,[19],−9.8%
same,"Mouse body weight, group Mean",[20],25.0 g
same,BWL %,[20],−9.2%
same,"Mouse body weight, group Mean",[21],24.4 g
same,BWL %,[21],−11.7%
same,"Mouse body weight, group Mean",[22],25.3 g
same,BWL %,[22],−8.3%
same,"Mouse body weight, group Mean",[23],25.6 g
same,BWL %,[23],−7.3%
same,"Mouse body weight, group Mean",[24],26.4 g
same,BWL %,[24],−4.2%
same,"Mouse body weight, group Mean",[25],25.4 g
same,BWL %,[25],−8.0%
same,"Mouse body weight, group Mean",[26],25.8 g
same,BWL %,[26],−6.6%
same,"Mouse body weight, group Mean",[27],25.8 g
same,BWL %,[27],−6.5%
